Experimental data taken from patent publication US20230024302A1, “2,3,5-TRISUBSTITUTED PYRAZOLO[1,5-A]PYRIMIDINE COMPOUNDS” (Arcus Biosciences, Inc., priority 2019, published 2023).

Assays:
PI3Kγ (p120γ) = molecular target: T1, PI3Kγ (p120γ) (Homo sapiens, UniProt P48736); experiment: Inhibition of PI3K kinase activity (ADP Glo), PI3Kγ; details: Table 2, p120γ, read-out: biochemical potency (PI3Kγ IC50)
T1 construct: purchased Promega V1761
Summary of the method: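 IC50 values come from a 4-parameter nonlinear fit of ADP-Glo luminescence, which measures ADP produced as PIP2 is phosphorylated to PIP3. The p120γ enzyme (2× stock 8 nM) sat with compound 1 h at rt before substrate (2× stocks: 50 μM ATP, 0.1 mg/ml PIP2) was added. Phosphorylation then proceeded 60 min at rt.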

PI3Kγ = molecular target: T2, PI3Kγ (Homo sapiens, UniProt P48736); experiment: PI3Kγ cellular assay in THP-1 cells (AKT pS473 AlphaLISA); assay type: cell-based; details: Table 2, rhMCP-1 stimulated AKT pS473, read-out: cellular potency (PI3Kγ IC50)
T2 construct: host or cells: THP-1
T2 sequence (P48736 whole entry): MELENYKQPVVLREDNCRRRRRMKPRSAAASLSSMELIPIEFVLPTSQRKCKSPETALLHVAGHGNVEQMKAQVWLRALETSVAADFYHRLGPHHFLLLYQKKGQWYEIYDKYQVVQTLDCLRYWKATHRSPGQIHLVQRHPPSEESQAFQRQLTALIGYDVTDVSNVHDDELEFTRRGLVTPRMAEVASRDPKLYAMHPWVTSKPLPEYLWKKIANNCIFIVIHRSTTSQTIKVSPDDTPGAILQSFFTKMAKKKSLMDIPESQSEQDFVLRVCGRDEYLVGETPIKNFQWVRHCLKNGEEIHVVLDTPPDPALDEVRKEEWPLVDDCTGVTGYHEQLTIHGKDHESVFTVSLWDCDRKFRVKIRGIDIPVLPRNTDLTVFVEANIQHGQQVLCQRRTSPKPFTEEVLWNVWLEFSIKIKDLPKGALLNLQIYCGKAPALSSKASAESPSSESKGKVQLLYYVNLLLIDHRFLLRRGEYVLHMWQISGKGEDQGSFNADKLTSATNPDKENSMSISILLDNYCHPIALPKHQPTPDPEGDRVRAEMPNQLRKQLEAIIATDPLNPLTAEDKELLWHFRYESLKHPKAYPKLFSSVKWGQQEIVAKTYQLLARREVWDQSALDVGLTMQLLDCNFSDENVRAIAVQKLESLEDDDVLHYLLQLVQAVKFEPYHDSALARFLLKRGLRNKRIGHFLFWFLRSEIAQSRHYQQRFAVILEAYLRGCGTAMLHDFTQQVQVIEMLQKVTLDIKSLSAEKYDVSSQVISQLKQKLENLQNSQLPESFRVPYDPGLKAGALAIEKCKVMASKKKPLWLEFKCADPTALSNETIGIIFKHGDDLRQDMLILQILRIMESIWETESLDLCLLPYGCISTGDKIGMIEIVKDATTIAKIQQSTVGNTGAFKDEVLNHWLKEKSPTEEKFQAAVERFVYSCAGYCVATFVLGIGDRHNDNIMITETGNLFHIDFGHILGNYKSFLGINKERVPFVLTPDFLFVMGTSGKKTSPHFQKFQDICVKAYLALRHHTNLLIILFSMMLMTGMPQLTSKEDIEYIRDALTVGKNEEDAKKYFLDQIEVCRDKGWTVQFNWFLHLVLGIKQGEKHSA
Summary of the method: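 Endogenous AKT S473 phosphorylation, detected by AlphaLISA in lysates, serves as the PI3Kγ activity read-out in stimulated, serum-starved THP-1 cells (1.8×10^5/well).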

T1 sequence (P48736 whole entry): as above

IC50 (PI3Kγ (p120γ)) [nM] | IC50 (PI3Kγ) [nM] | Compound
< 100 | 100 to 1000 | Cc1cc(-c2ccn3nc(N)c(C(=O)N[C@H](C)CN)c3n2)cc2c1C(=O)N([C@@H](C)C1CC1)C2 [Example 230]
< 100 | 100 to 1000 | Cc1cc(-c2ccn3nc(N)c(C(=O)N[C@@H]4CCCNC4)c3n2)cc2c1C(=O)N([C@@H](C)C1CC1)C2 [Example 231]
< 100 | 100 to 1000 | Cc1cc(-c2ccn3nc(N)c(C(=O)N[C@H]4CCNC4)c3n2)cc2c1C(=O)N([C@@H](C)C1CC1)C2 [Example 232]
< 100 | 100 to 1000 | CCNC(=O)c1c(N)nn2ccc(-c3cc(C)c4c(c3)CN([C@@H](C)C3CC3)C4=O)nc12 [Example 233]
< 100 | 100 to 1000 | Cc1cc(-c2ccn3nc(N)c(C(=O)NC[C@H](C)O)c3n2)cc2c1C(=O)N([C@@H](C)C1CC1)C2 [Example 234]
< 100 | 100 to 1000 | Cc1cc(-c2ccn3nc(N)c(C(=O)N[C@@H](C)c4cnn(C)c4)c3n2)cc2c1C(=O)N([C@@H](C)C1CC1)C2 [Example 235]
< 100 | 100 to 1000 | Cc1cc(-c2ccn3nc(N)c(C(=O)NCC(N)=O)c3n2)cc2c1C(=O)N([C@@H](C)C1CC1)C2 [Example 236]
< 100 | 100 to 1000 | Cc1cc(-c2ccn3nc(N)c(C(=O)N[C@@H](CO)C(C)(C)C)c3n2)cc2c1C(=O)N([C@@H](C)C1CC1)C2 [Example 237]
< 100 | 100 to 1000 | Cc1cc(-c2ccn3nc(N)c(C(=O)NC[C@@H]4CCOC4)c3n2)cc2c1C(=O)N([C@@H](C)C1CC1)C2 [Example 238]
< 100 | 100 to 1000 | Cc1cc(-c2ccn3nc(N)c(C(=O)N[C@H]4CC[C@@H](O)C4)c3n2)cc2c1C(=O)N([C@@H](C)C1CC1)C2 [Example 239]
< 100 | 100 to 1000 | Cc1cc(-c2ccn3nc(N)c(C(=O)N[C@@H]4c5ccccc5C[C@@H]4O)c3n2)cc2c1C(=O)N([C@@H](C)C1CC1)C2 [Example 240]
< 100 | 100 to 1000 | Cc1cc(-c2ccn3nc(N)c(C(=O)NC4CS(=O)(=O)C4)c3n2)cc2c1C(=O)N([C@@H](C)C1CC1)C2 [Example 241]
< 100 | 100 to 1000 | Cc1cc(-c2ccn3nc(N)c(C(=O)NC4(C)CC4)c3n2)cc2c1C(=O)N([C@@H](C)C1CC1)C2 [Example 242]
< 100 | 100 to 1000 | Cc1cc(-c2ccn3nc(N)c(C(=O)N[C@H]4CCCNC4)c3n2)cc2c1C(=O)N([C@@H](C)C1CC1)C2 [Example 243]
< 100 | 100 to 1000 | Cc1cc(-c2ccn3nc(N)c(C(=O)N[C@H]4CCC[C@H](O)C4)c3n2)cc2c1C(=O)N([C@@H](C)C1CC1)C2 [Example 244]
< 100 | 100 to 1000 | Cc1cc(-c2ccn3nc(N)c(C(=O)N[C@@H](C(N)=O)c4ccccc4)c3n2)cc2c1C(=O)N([C@@H](C)C1CC1)C2 [Example 245]
< 100 | 100 to 1000 | Cc1cc(-c2ccn3nc(N)c(C(=O)NC4(CO)CC4)c3n2)cc2c1C(=O)N([C@@H](C)C1CC1)C2 [Example 246]
< 100 | 100 to 1000 | Cc1cc(-c2ccn3nc(N)c(C(=O)NC4(C(N)=O)CC4)c3n2)cc2c1C(=O)N([C@@H](C)C1CC1)C2 [Example 247]
< 100 | 100 to 1000 | Cc1cc(-c2ccn3nc(N)c(C(=O)NC(C)(C)c4ccncc4)c3n2)cc2c1C(=O)N([C@@H](C)C1CC1)C2 [Example 248]
< 100 | 100 to 1000 | Cc1cc(-c2ccn3nc(N)c(C(=O)NC4CC4(C)C)c3n2)cc2c1C(=O)N([C@@H](C)C1CC1)C2 (some centres unmarked) [Example 249]
< 100 | 100 to 1000 | Cc1cc(-c2ccn3nc(N)c(C(=O)NCC4(CO)CC4)c3n2)cc2c1C(=O)N([C@@H](C)C1CC1)C2 [Example 250]
< 100 | 100 to 1000 | Cc1cc(-c2ccn3nc(N)c(C(=O)N4CC(O)C4)c3n2)cc2c1C(=O)N(C(C)C1CC1)C2 (centres unmarked) [Example 251]
< 100 | 100 to 1000 | Cc1cc(-c2ccn3nc(N)c(C(=O)NC(C)C)c3n2)cc2c1C(=O)N([C@@H](C)C1CC1)C2 [Example 252]

IC50 (PI3Kγ (p120γ)) [nM] | IC50 (PI3Kγ) [nM] | Compound
< 100 | 100 to 1000 | Cc1cc(-c2ccn3nc(N)c(C(=O)NC4(C(C)O)CC4)c3n2)cc2c1C(=O)N([C@@H](C)C1CC1)C2 (some centres unmarked) [Example 253]
< 100 | 100 to 1000 | Cc1cc(-c2ccn3nc(N)c(C(=O)N[C@H]4CCCC[C@@H]4O)c3n2)cc2c1C(=O)N([C@@H](C)C1CC1)C2 [Example 254]
< 100 | 100 to 1000 | Cc1cc(-c2ccn3nc(N)c(C(=O)NC4(C#N)CCC4)c3n2)cc2c1C(=O)N([C@@H](C)C1CC1)C2 [Example 255]
< 100 | 100 to 1000 | Cc1cc(-c2ccn3nc(N)c(C(=O)NCC4(C#N)CC4)c3n2)cc2c1C(=O)N([C@@H](C)C1CC1)C2 [Example 256]
< 100 | 100 to 1000 | Cc1cc(-c2ccn3nc(N)c(C(=O)NC[C@H]4CCOC4)c3n2)cc2c1C(=O)N([C@@H](C)C1CC1)C2 [Example 257]
< 100 | 100 to 1000 | Cc1cc(-c2ccn3nc(N)c(C(=O)NC4CC(F)(F)C4)c3n2)cc2c1C(=O)N([C@@H](C)C1CC1)C2 [Example 258]
< 100 | 100 to 1000 | Cc1cc(-c2ccn3nc(N)c(C(=O)NC4COCc5ccccc54)c3n2)cc2c1C(=O)N([C@@H](C)C1CC1)C2 (some centres unmarked) [Example 259]
< 100 | 100 to 1000 | Cc1cc(-c2ccn3nc(N)c(C(=O)NCCC#N)c3n2)cc2c1C(=O)N([C@@H](C)C1CC1)C2 [Example 260]
< 100 | 100 to 1000 | Cc1cc(-c2ccn3nc(N)c(C(=O)N[C@H]4CCOc5ccccc54)c3n2)cc2c1C(=O)N([C@@H](C)C1CC1)C2 [Example 261]
< 100 | 100 to 1000 | Cc1cc(-c2ccn3nc(N)c(C(=O)NC4(C(F)(F)F)CC4)c3n2)cc2c1C(=O)N([C@@H](C)C1CC1)C2 [Example 262]
< 100 | 100 to 1000 | Cc1cc(-c2ccn3nc(N)c(C(=O)N[C@@H]4C[C@@H]4F)c3n2)cc2c1C(=O)N([C@@H](C)C1CC1)C2 [Example 263]
< 100 | 100 to 1000 | Cc1cc(-c2ccn3nc(N)c(C(=O)N[C@H]4CCC[C@H]4O)c3n2)cc2c1C(=O)N([C@@H](C)C1CC1)C2 [Example 264]
< 100 | > 1000 | Cc1cc(-c2ccn3nc(N)c(C(=O)N[C@H]4Cc5ccccc5[C@@H]4O)c3n2)cc2c1C(=O)N([C@@H](C)C1CC1)C2 [Example 265]
< 100 | > 1000 | Cc1cc(-c2ccn3nc(N)c(C(=O)NC4CNC4)c3n2)cc2c1C(=O)N([C@@H](C)C1CC1)C2 [Example 266]
< 100 | 100 to 1000 | Cc1cc(-c2ccn3nc(N)c(C(=O)N[C@@H](CO)CC(C)C)c3n2)cc2c1C(=O)N([C@@H](C)C1CC1)C2 [Example 267]
< 100 | 100 to 1000 | Cc1cc(-c2ccn3nc(N)c(C(=O)NC4(C#N)CC4)c3n2)cc2c1C(=O)N([C@@H](C)C1CC1)C2 [Example 268]
< 100 | 100 to 1000 | Cc1cc(-c2ccn3nc(N)c(C(=O)NC[C@H]4CCCO4)c3n2)cc2c1C(=O)N([C@@H](C)C1CC1)C2 [Example 269]
< 100 | 100 to 1000 | Cc1cc(-c2ccn3nc(N)c(C(=O)N4CC(C(C)(C)O)C4)c3n2)cc2c1C(=O)N(C(C)C1CC1)C2 (centres unmarked) [Example 270]
< 100 | 100 to 1000 | Cc1cc(-c2ccn3nc(N)c(C(=O)NC[C@@H]4CCC(=O)N4)c3n2)cc2c1C(=O)N([C@@H](C)C1CC1)C2 [Example 271]
< 100 | > 1000 | Cc1cc(-c2ccn3nc(N)c(C(=O)N[C@H]4c5ccccc5C[C@@H]4O)c3n2)cc2c1C(=O)N([C@@H](C)C1CC1)C2 [Example 272]
< 100 | 100 to 1000 | Cc1cc(-c2ccn3nc(N)c(C(=O)N[C@H]4CC[C@@H](N)CC4)c3n2)cc2c1C(=O)N([C@@H](C)C1CC1)C2 [Example 273]
< 100 | 100 to 1000 | Cc1cc(-c2ccn3nc(N)c(C(=O)N4CCC4CO)c3n2)cc2c1C(=O)N(C(C)C1CC1)C2 (centres unmarked) [Example 274]
< 100 | 100 to 1000 | Cc1cc(-c2ccn3nc(N)c(C(=O)N[C@H]4CCCC[C@H]4O)c3n2)cc2c1C(=O)N([C@@H](C)C1CC1)C2 [Example 275]
